≈ marks a conversion by molar mass, not a printed value. Positions of bridges follow the written chain, without caps; N, C: chain ends. Non-standard residues stand in square brackets, D forms with d. Residues, ends and D or L forms follow the SMILES beside them. *: point of attachment. Benzoyl(4-Me) = Cc1ccc(C(=O)*)cc1; Heptanoyl(6-Me) = CC(C)CCCCC(=O)*; X41 = O=S(=O)(c1ccc(Cl)cc1Cl)*; Heptanoyl = CCCCCCC(=O)*; Octanoyl = CCCCCCCC(=O)*; Orn = NCCC[C@H](N)C(=O)O; Dab = NCC[C@H](N)C(=O)O; Abu = CC[C@H](N)C(=O)O; Dap = NC[C@H](N)C(=O)O; Hexanoyl = CCCCCC(=O)*; X27 = Cc1ccccc1C(=O)*
What was measured:
Acinetobacter baumannii = tested on: Acinetobacter baumannii
In short: (§1)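 Read-out is the MIC, obtained by broth microdilution under CLSI guidance. Lipopeptides (TFA salt form) were diluted in cation-adjusted Mueller-Hinton broth, with polymyxin B sulphate run alongside as control.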

Enterobacter cloacae = tested on: Enterobacter cloacae
In short: as §1

Pseudomonas aeruginosa = tested on: Pseudomonas aeruginosa
In short: as §1

Row | SMILES | Minimum inhibitory concentration, Ab A ATCC 17978 (Acinetobacter baumannii) | Minimum inhibitory concentration, Ab ATCC 19606 (Acinetobacter baumannii) | Minimum inhibitory concentration, Ab FADDI-AB034 (Acinetobacter baumannii) | Minimum inhibitory concentration, Ec FADDI-EC001 (Enterobacter cloacae) | Minimum inhibitory concentration, Ec FADDI-EC003 (Enterobacter cloacae) | Minimum inhibitory concentration, Ec FADDI-EC006 (Enterobacter cloacae) | Minimum inhibitory concentration, Pa ATCC 27853 (Pseudomonas aeruginosa) | Minimum inhibitory concentration, Pa FADDI-PA022 (Pseudomonas aeruginosa) | Minimum inhibitory concentration, Pa FADDI-PA025 (Pseudomonas aeruginosa) | Minimum inhibitory concentration (MIC), Ab ATCC 17978 (Acinetobacter baumannii; Acinetobacter baumannii ATCC 17978, broth microdilution in CAMHB, TFA salt) | Minimum inhibitory concentration (MIC), Ab ATCC 19606 (Acinetobacter baumannii; Acinetobacter baumannii ATCC 19606, broth microdilution in CAMHB, TFA salt) | Minimum inhibitory concentration (MIC), Ab FADDI-AB034 (Acinetobacter baumannii; Acinetobacter baumannii FADDI-AB034, broth microdilution in CAMHB, TFA salt) | Minimum inhibitory concentration (MIC), Ec FADDI-EC001 (Enterobacter cloacae; Enterobacter cloacae FADDI-EC001, broth microdilution in CAMHB, TFA salt) | Minimum inhibitory concentration (MIC), Ec FADDI-EC003 (Enterobacter cloacae; Enterobacter cloacae FADDI-EC003, broth microdilution in CAMHB, TFA salt) | Minimum inhibitory concentration (MIC), Ec FADDI-EC006 (Enterobacter cloacae; Enterobacter cloacae FADDI-EC006, broth microdilution in CAMHB, TFA salt) | Minimum inhibitory concentration (MIC), Pa ATCC 27853 (Pseudomonas aeruginosa; Pseudomonas aeruginosa ATCC 27853, broth microdilution in CAMHB, TFA salt) | Minimum inhibitory concentration (MIC), Pa FADDI-PA022 (Pseudomonas aeruginosa; Pseudomonas aeruginosa FADDI-PA022, broth microdilution in CAMHB, TFA salt) | Minimum inhibitory concentration (MIC), Pa FADDI-PA025 (Pseudomonas aeruginosa; Pseudomonas aeruginosa FADDI-PA025, broth microdilution in CAMHB, TFA salt)
1 | CCCCCCCC(=O)N[C@@H](CCN)C(=O)N[C@H](C(=O)N[C@@H](CN)C(=O)N[C@H]1CCNC(=O)[C@H]([C@@H](C)O)NC(=O)[C@H](CCN)NC(=O)[C@H](CCN)NC(=O)[C@H](C)NC(=O)[C@@H](Cc2ccccc2)NC(=O)[C@H](CCN)NC1=O)[C@@H](C)O [Compound 128] (Octanoyl-[Dab]T[Dap][Dab][Dab][dF]A[Dab][Dab]T; lactam 4-C) | 0.25 µg/mL (≈ 0.221 µM) | 0.25 µg/mL (≈ 0.221 µM) | 0.25 µg/mL (≈ 0.221 µM) | <0.125 µg/mL | 0.25 µg/mL (≈ 0.221 µM) | 0.5 µg/mL (≈ 0.441 µM) | 0.5 µg/mL (≈ 0.441 µM) | 1 µg/mL (≈ 0.882 µM) | 4 µg/mL (≈ 3.53 µM) | – | – | – | – | – | – | – | – | –
2 | CCCCCC(=O)N[C@@H](CCN)C(=O)N[C@H](C(=O)N[C@@H](CN)C(=O)N[C@H]1CCNC(=O)[C@H]([C@@H](C)O)NC(=O)[C@H](CCN)NC(=O)[C@H](CCN)NC(=O)[C@H](CC)NC(=O)[C@@H](CC(C)C)NC(=O)[C@H](CCN)NC1=O)[C@@H](C)O [Compound 68] (Hexanoyl-[Dab]T[Dap][Dab][Dab][dL][Abu][Dab][Dab]T; lactam 4-C) | 1 µg/mL (≈ 0.921 µM) | 2 µg/mL (≈ 1.84 µM) | 1 µg/mL (≈ 0.921 µM) | 0.25 µg/mL (≈ 0.23 µM) | <0.125 µg/mL | <0.125 µg/mL | 0.5 µg/mL (≈ 0.461 µM) | 0.5 µg/mL (≈ 0.461 µM) | 2 µg/mL (≈ 1.84 µM) | – | – | – | – | – | – | – | – | –
3 | CCCCCCC(=O)N[C@@H](CCN)C(=O)N[C@H](C(=O)N[C@@H](CN)C(=O)N[C@H]1CCNC(=O)[C@H]([C@@H](C)O)NC(=O)[C@H](CCN)NC(=O)[C@H](CCN)NC(=O)[C@H]([C@@H](C)O)NC(=O)[C@@H](CC(C)C)NC(=O)[C@H](CCN)NC1=O)[C@@H](C)O [Compound 44] (Heptanoyl-[Dab]T[Dap][Dab][Dab][dL]T[Dab][Dab]T; lactam 4-C) | 1 µg/mL (≈ 0.897 µM) | 1 µg/mL (≈ 0.897 µM) | 1 µg/mL (≈ 0.897 µM) | 0.25 µg/mL (≈ 0.224 µM) | <0.125 µg/mL | <0.125 µg/mL | 0.5 µg/mL (≈ 0.448 µM) | 1 µg/mL (≈ 0.897 µM) | 16 µg/mL (≈ 14.3 µM) | – | – | – | – | – | – | – | – | –
4 | CC[C@@H]1NC(=O)[C@@H](CC(C)C)NC(=O)[C@H](CCN)NC(=O)[C@@H](NC(=O)[C@H](CN)NC(=O)[C@@H](NC(=O)[C@H](CCN)NC(=O)c2ccccc2C)[C@@H](C)O)CCNC(=O)[C@H]([C@@H](C)O)NC(=O)[C@H](CCN)NC(=O)[C@H](CCN)NC1=O [Compound 75] (X27-[Dab]T[Dap][Dab][Dab][dL][Abu][Dab][Dab]T; lactam 4-C) | 1 µg/mL (≈ 0.905 µM) | 1 µg/mL (≈ 0.905 µM) | 1 µg/mL (≈ 0.905 µM) | 0.25 µg/mL (≈ 0.226 µM) | 0.25 µg/mL (≈ 0.226 µM) | 0.5 µg/mL (≈ 0.452 µM) | 0.5 µg/mL (≈ 0.452 µM) | 1 µg/mL (≈ 0.905 µM) | 2 µg/mL (≈ 1.81 µM) | – | – | – | – | – | – | – | – | –
5 | CCCCCC(=O)N[C@@H](CCN)C(=O)N[C@H](C(=O)N[C@@H](CN)C(=O)N[C@H]1CCNC(=O)[C@H]([C@@H](C)O)NC(=O)[C@H](CCN)NC(=O)[C@H](CCN)NC(=O)[C@H](C)NC(=O)[C@@H](CC(C)C)NC(=O)[C@H](CCN)NC1=O)[C@@H](C)O [Compound 67] (Hexanoyl-[Dab]T[Dap][Dab][Dab][dL]A[Dab][Dab]T; lactam 4-C) | 2 µg/mL (≈ 1.87 µM) | 4 µg/mL (≈ 3.73 µM) | 4 µg/mL (≈ 3.73 µM) | <0.125 µg/mL | 0.25 µg/mL (≈ 0.233 µM) | 0.5 µg/mL (≈ 0.467 µM) | 0.5 µg/mL (≈ 0.467 µM) | 0.5 µg/mL (≈ 0.467 µM) | 2 µg/mL (≈ 1.87 µM) | – | – | – | – | – | – | – | – | –
6 | CC[C@@H]1NC(=O)[C@@H](CC(C)C)NC(=O)[C@H](CCN)NC(=O)[C@@H](NC(=O)[C@H](CN)NC(=O)[C@@H](NC(=O)[C@H](CCN)NS(=O)(=O)c2ccc(Cl)cc2Cl)[C@@H](C)O)CCNC(=O)[C@H]([C@@H](C)O)NC(=O)[C@H](CCN)NC(=O)[C@H](CCN)NC1=O [Compound 148] (X41-[Dab]T[Dap][Dab][Dab][dL][Abu][Dab][Dab]T; lactam 4-C) | – | – | – | – | – | – | – | – | – | 0.5 µg/mL | 2 µg/mL | 1 µg/mL | 2 µg/mL | 4 µg/mL | 1 µg/mL | 1 µg/mL | 1 µg/mL | 16 µg/mL
7 | CC[C@@H]1NC(=O)[C@@H](CC(C)C)NC(=O)[C@H](CCN)NC(=O)[C@@H](NC(=O)[C@H](CN)NC(=O)[C@@H](NC(=O)[C@H](CCN)NC(=O)CCCCC(C)C)[C@@H](C)O)CCNC(=O)[C@H]([C@@H](C)O)NC(=O)[C@H](CCN)NC(=O)[C@H](CCN)NC1=O [Compound 66] ({Heptanoyl(6-Me)}-[Dab]T[Dap][Dab][Dab][dL][Abu][Dab][Dab]T; lactam 4-C) | 0.25 µg/mL (≈ 0.225 µM) | 0.25 µg/mL (≈ 0.225 µM) | 0.5 µg/mL (≈ 0.449 µM) | 0.5 µg/mL (≈ 0.449 µM) | <0.125 µg/mL | 0.25 µg/mL (≈ 0.225 µM) | 1 µg/mL (≈ 0.898 µM) | 2 µg/mL (≈ 1.8 µM) | 4 µg/mL (≈ 3.59 µM) | – | – | – | – | – | – | – | – | –
8 | CC[C@@H]1NC(=O)[C@@H](CC(C)C)NC(=O)[C@H](CCN)NC(=O)[C@@H](NC(=O)[C@H](CN)NC(=O)[C@@H](NC(=O)[C@H](CCN)NC(=O)c2ccc(C)cc2)[C@@H](C)O)CCNC(=O)[C@H]([C@@H](C)O)NC(=O)[C@H](CCN)NC(=O)[C@H](CCN)NC1=O [Compound 98] ({Benzoyl(4-Me)}-[Dab]T[Dap][Dab][Dab][dL][Abu][Dab][Dab]T; lactam 4-C) | 2 µg/mL (≈ 1.81 µM) | 2 µg/mL (≈ 1.81 µM) | 2 µg/mL (≈ 1.81 µM) | 1 µg/mL (≈ 0.905 µM) | 0.25 µg/mL (≈ 0.226 µM) | 2 µg/mL (≈ 1.81 µM) | 0.5 µg/mL (≈ 0.452 µM) | 0.5 µg/mL (≈ 0.452 µM) | 2 µg/mL (≈ 1.81 µM) | – | – | – | – | – | – | – | – | –
9 | CCCCCCCC(=O)N[C@@H](CCN)C(=O)N[C@H](C(=O)N[C@@H](CCCN)C(=O)N[C@H]1CCNC(=O)[C@H]([C@@H](C)O)NC(=O)[C@H](CCN)NC(=O)[C@H](CCN)NC(=O)[C@H]([C@@H](C)O)NC(=O)[C@@H](CC(C)C)NC(=O)[C@H](CCN)NC1=O)[C@@H](C)O [Compound 34] (Octanoyl-[Dab]T[Orn][Dab][Dab][dL]T[Dab][Dab]T; lactam 4-C) | 2 µg/mL (≈ 1.73 µM) | 2 µg/mL (≈ 1.73 µM) | 2 µg/mL (≈ 1.73 µM) | <0.125 µg/mL | <0.125 µg/mL | 4 µg/mL (≈ 3.46 µM) | 1 µg/mL (≈ 0.864 µM) | 0.5 µg/mL (≈ 0.432 µM) | >32 µg/mL | – | – | – | – | – | – | – | – | –
10 | CCCCCCCC(=O)N[C@@H](CN)C(=O)N[C@H](C(=O)N[C@@H](CN)C(=O)N[C@H]1CCNC(=O)[C@H]([C@@H](C)O)NC(=O)[C@H](CCN)NC(=O)[C@H](CCN)NC(=O)[C@H]([C@@H](C)O)NC(=O)[C@@H](CC(C)C)NC(=O)[C@H](CCN)NC1=O)[C@@H](C)O [Compound 48] (Octanoyl-[Dap]T[Dap][Dab][Dab][dL]T[Dab][Dab]T; lactam 4-C) | 1 µg/mL (≈ 0.897 µM) | 1 µg/mL (≈ 0.897 µM) | 1 µg/mL (≈ 0.897 µM) | 0.25 µg/mL (≈ 0.224 µM) | <0.125 µg/mL | <0.125 µg/mL | 0.5 µg/mL (≈ 0.448 µM) | 2 µg/mL (≈ 1.79 µM) | 4 µg/mL (≈ 3.59 µM) | – | – | – | – | – | – | – | – | –
11 | CCCCCCCC(=O)N[C@@H](CCN)C(=O)N[C@H](C(=O)N[C@@H](CN)C(=O)N[C@H]1CCNC(=O)[C@H]([C@@H](C)O)NC(=O)[C@H](CCCN)NC(=O)[C@H](CCN)NC(=O)[C@H]([C@@H](C)O)NC(=O)[C@@H](CC(C)C)NC(=O)[C@H](CCN)NC1=O)[C@@H](C)O [Compound 53] (Octanoyl-[Dab]T[Dap][Dab][Dab][dL]T[Dab][Orn]T; lactam 4-C) | 8 µg/mL (≈ 7 µM) | 16 µg/mL (≈ 14 µM) | 8 µg/mL (≈ 7 µM) | 0.5 µg/mL (≈ 0.437 µM) | 2 µg/mL (≈ 1.75 µM) | 8 µg/mL (≈ 7 µM) | 8 µg/mL (≈ 7 µM) | 2 µg/mL (≈ 1.75 µM) | >32 µg/mL | – | – | – | – | – | – | – | – | –

From USRE48335E1, “Polymyxin derivatives as antimicrobial compounds” (priority 2014, dated 2020)
